{"source": "patent US9828398B2", "about": "“Compound for bone scanning and use thereof” (TAIWAN HOPAX CHEMS. MFG. CO., LTD., priority 2015, dated 2017)", "assay": "Planar scintigraphy of 111In-compounds in normal rats", "format": "in vivo", "conditions": "1, 24 and 48 hours after ^111In-OMS or ^111In-OB121", "procedure": "FIG. 31 is planar scintigraphy of ^111In-Compounds ([…], iv, at 1-48 hours acquired 500,000, count) in normal rats.\nPamidronate (PAM), Methyl diphosphonate (MDP) and OMS are bone-related agents and were used as control group in present invention. Scintigraphic images, captured by a gamma camera equipped with low-energy, parallel-hole collimator or micro-PET, were obtained in 0.5-2 hours. The selected images are shown in FIGS. 29 and 30, wherein FIG. 29 compares the planar images of 30, 60, and 120 min of normal rats which were taken ^99mTc-PAM, ^99mTc-MDP, ^99mTc-OMS, ^99mTc-OB141, ^99mTc-OB 121 and ^99mTc-DTPA-BP respectively. FIG. 30 compares the planar images of 20, 60, and 150 min of normal rats which were taken ^99mTc-MDP, ^99mTc-DTPA-AMDP, and ^99mTc-MAMA-AMDP respectively. Higher joint-to-muscle (J/M) or bone-to-muscle (B/M) ratios and the better quality of bone images were achieved. […] Besides, as tetraazacyclic groups are very lipophilic so that they may have potential applications in the treatment of osteoporosis. Thus, tetraazacyclic groups were labeled with In-111 for longer observation."}
{"smiles": "O=P(O)(O)C(O)(CN1CCN(CC(O)(P(=O)(O)O)P(=O)(O)O)CCN(CC(O)(P(=O)(O)O)P(=O)(O)O)CCN(CC(O)(P(=O)(O)O)P(=O)(O)O)CC1)P(=O)(O)O", "note": "[OB-121, 1,4,7,10-Tetraazacyclododecane-1,4,7,10-tetrakis(2-hydroxy-ethylenebisphosphonate)]", "values": [{"measurement": "quality of planar images", "value": "better compound for getting high quality images"}]}
